Assay results reported in paper PMC7311396, “Ultra-large chemical libraries for the discovery of high-affinity peptide binders” (Nature Communications, 2020).
Non-standard residues stand in square brackets, D forms with d. Residues, ends and D or L forms follow the SMILES beside them.

Legend:
[1] = tested on: anti-HA mAb clone 12ca5; test: Competition fluorescence polarization of HA epitope and analogues; type: binding; settings: for IC50: competition FP, 100 nM 12ca5, 28 nM YPYDVPDYAK(FITC)-CONH2, 1 mg/mL BSA, 0.02% Tween 20, 1x PBS, RT, read after 1 h; for Kd: from competition FP, 100 nM 12ca5, 28 nM FITC tracer
Method: Competition fluorescence polarization of HA epitope and analogues:
Solutions of unlabeled peptides (~1 mg/mL each; Supplementary Table 1) in 1x PBS was prepared in the presence of 100 nM 12ca5, 1 mg/mL BSA, 0.02% Tween 20 (120 μL). Fluorescent competitor was added (YPYDVPDYAK(FITC)α-CONH2; 28 nM).
The resulting solution was diluted serially (20 μL) into 100 nM 12ca5, 28 nM […]
YPYDVPDYAK(FITC)α-CONH2, 1 mg/mL BSA, 0.02% Tween 20 in 1x PBS (80 μL; […]
5-fold dilutions). The resulting solutions were transferred to a 96 well plate (Greiner Bio- […]
(RT), and read after 1 h on a Tecan Infinite M1000 plate reader (470 nm excitation; 517 nm detection; 5 nm bandwidth). The concentration of fluorescent […] was determined based on absorbance at 490 nm, using ε = 76,900 M-1cm-1.
Competition fluorescence polarization of HA epitope Ala scan mutants:
Competition fluorescence polarization experiments were carried out as described in Competition fluorescence polarization of HA epitope and analogues.

[2] = tested on: 12ca5; test: Magnetic bead affinity capture of 12ca5-binding peptides, recovery by nLC-MS; design: species or system mouse
Method: Identification of binders from high-diversity libraries would necessitate their efficient recovery at high dilution. To assess the utility of magnetic bead-based affinity capture for this purpose, we investigated the recovery of a number of peptide binders with varying affinity for anti-HA mAb clone 12ca5 (12ca5), which recognizes the linear motif DXXDYA (Supplementary Figs. 1–6; Supplementary Table 1). In these experiments, streptavidin-coated magnetic beads (1 mg; 0.13 nmol IgG binding capacity) functionalized with biotinylated 12ca5 were incubated with mixtures of 12ca5-binding peptides (either 1 nM/peptide, 100 pM/peptide, or 10 pM/peptide; 1 mL scale). The magnetic beads were isolated, washed with buffer, and treated with chemical denaturant to elute bound peptides. A portion of this eluate (~2%) was subjected to nLC-MS analysis, and recovery was quantified using normalized MS response. To calculate recovery, a separate dose-response curve was generated for each peptide, since their MS responses varied by ~5-fold (Supplementary Fig. 7). […]

[3] = tested on: 12ca5; test: Affinity selection from 10^8-member library against 12ca5 with exogenous competitor; settings: 10 pM/member, 0.13 nmol 12ca5

| SMILES | IC50 [1] | Kd [1] | recovery ([2]; 1 mg 12ca5-functionalized beads, 1 mL, 1 nM to 10 pM/peptide, 1 h 4 °C, 3 PBS washes (~6 min), normalized MS response) | recovery expected based on measured dissociation rate ([2]; based on koff = 3.0 × 10^−3 s^−1 and total wash time of ~6 min) | competitor concentration required to attenuate the recovery of DXXDY(A/S) peptides [3] |
| --- | --- | --- | --- | --- | --- |
| C[C@H](NC(=O)[C@H](Cc1ccc(O)cc1)NC(=O)[C@H](CC(=O)O)NC(=O)[C@H](CCC(=O)O)NC(=O)[C@H](Cc1ccc(O)cc1)NC(=O)[C@H](CC(=O)O)NC(=O)[C@@H](N)Cc1ccccc1)C(=O)N[C@@H](CCC(=O)O)C(=O)N[C@@H](Cc1c[nH]c2ccccc12)C(=O)N[C@@H](CCCCN)C(N)=O [FDYEDYAEWK] (H-FDYEDYAEWK-NH2) | 0.59 ± 0.19 µM | 25 ± 13 nM | 33% | 34% | – |
| NCC(=O)N[C@H](Cc1ccc(O)cc1)C(=O)N1CCC[C@@H]1C(=O)N[C@H](Cc1ccc(O)cc1)C(=O)N[C@H](CCC(=O)O)C(=O)N[C@H](Cc1ccc(O)cc1)C(=O)N[C@H](CC(=O)O)C(=O)N[C@H](Cc1c[nH]c2ccccc12)C(=O)N[C@H](CCC(=O)O)C(N)=O [Gypyeydwe, reference compound] (H-G[dY][dP][dY][dE][dY][dD][dW][dE]-NH2) | 62 ± 8 µM | 3000 nM | – | – | 100 µM |
